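These data come from cells grown in 96-well plates and exposed to compound for 48 hours at five concentrations. TGI marks complete inhibition of growth.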 Where a SMILES comes first, the peptide text is derived from it. The star is where a group is joined. Boc = CC(C)(C)OC(=O)* Bounds are passed on as bounds.

Test systems include CAKI-1 renal; RPMI-8226 leukemia; UO-31 renal; SK-MEL-2 melanoma; SK-OV-3 ovarian; COLO 205 colon; NCI-H226 lung; BT-549 breast; MCF7 breast; A498 renal; HT29 colon; OVCAR-8 ovarian; HCT-116 colon; SF-268 CNS; OVCAR-5 ovarian; 786-0 renal; NCI-H23 lung; MDA-N; NCI-H460 lung; RXF 393 renal.
Test in all cases: NCI-60 cell line screen, 48 h

In the case of `CN(C(=O)[C@@H](NC(=O)OC(C)(C)C)c1ccccc1)[C@H]1CCCC[C@@H]1N1CCCC1`, the TGI with CAKI-1 renal, in the experiment on RPMI-8226 leukemia, in the experiment on UO-31 renal, in the experiment on SK-MEL-2 melanoma, with SK-OV-3 ovarian and with COLO 205 colon was over 100 µM throughout. The TGI in the experiment on NCI-H226 lung, in the experiment with BT-549 breast, in the experiment on MCF7 breast, with A498 renal, in the experiment with HT29 colon and in the experiment on OVCAR-8 ovarian was over 100 µM in each case. Besides, the TGI in the experiment on HCT-116 colon, in the experiment with SF-268 CNS, with OVCAR-5 ovarian, in the experiment on 786-0 renal and with NCI-H23 lung was over 100 µM in each case.
Turning to `COC(=O)CCCC(=O)NC1=C(Nc2ccccc2)C(=O)c2ccccc2C1=O`, the TGI in the experiment on CAKI-1 renal worked out at 44 µM; in the experiment on RPMI-8226 leukemia, 59.7 µM; with MDA-N, 15 µM; in the experiment with UO-31 renal it was 46.1 µM; with SK-MEL-2 melanoma, 34.2 µM; with SK-OV-3 ovarian, 53.4 µM. The TGI was 35.7 µM in the experiment with COLO 205 colon; 32.1 µM with MCF7 breast; 32.5 µM with A498 renal; over 100 µM in the experiment on OVCAR-8 ovarian; 33.7 µM with NCI-H460 lung; 32.7 µM with HCT-116 colon. For the same compound, the TGI in the experiment with SF-268 CNS was 96.3 µM; in the experiment with OVCAR-5 ovarian, 30.7 µM; in the experiment on 786-0 renal it was 33.5 µM; in the experiment with NCI-H23 lung it was 29.6 µM.
Regarding `CC(NC1=NCCO1)c1cccs1` (centres undefined), the TGI in the experiment on RPMI-8226 leukemia was over 100 µM; in the experiment on UO-31 renal, 92.8 µM; in the experiment with SK-OV-3 ovarian it was over 100 µM; with COLO 205 colon it was 35.9 µM; with NCI-H226 lung, over 100 µM; with MCF7 breast, 55.9 µM. The TGI with A498 renal is over 100 µM; in the experiment with HT29 colon, 42.6 µM; with OVCAR-8 ovarian it was over 100 µM; in the experiment with NCI-H460 lung it was over 100 µM; in the experiment with HCT-116 colon, 38.6 µM; in the experiment with SF-268 CNS it was 69.9 µM. Besides, the values for the TGI in the experiment on OVCAR-5 ovarian, in the experiment with 786-0 renal and with NCI-H23 lung were over 100 µM, 36.6 µM and over 100 µM, respectively.
In the case of `CCc1cccc(CC)c1Nc1nc2c(s1)C(=O)c1ccccc1C2=O`, the TGI in the experiment with CAKI-1 renal is 30 µM; in the experiment with RPMI-8226 leukemia, over 100 µM; in the experiment on MDA-N it was 32.3 µM; with UO-31 renal, 29.2 µM; in the experiment with SK-MEL-2 melanoma, 39.8 µM; in the experiment on SK-OV-3 ovarian, 89.8 µM. Also, the TGI with COLO 205 colon is 49.6 µM; in the experiment with MCF7 breast, 52 µM; in the experiment on NCI-H460 lung, 34.9 µM; in the experiment on RXF 393 renal, 40.3 µM; in the experiment on HCT-116 colon, 31.4 µM; in the experiment with SF-268 CNS it was 41.7 µM. The TGI stood at 39.7 µM with OVCAR-5 ovarian, 36 µM in the experiment on 786-0 renal and 32.8 µM in the experiment with NCI-H23 lung.
On to `O=C1CCc2nc3ncccc3cc2C1`, for which the TGI in the experiment with CAKI-1 renal, in the experiment on RPMI-8226 leukemia, in the experiment on MDA-N, with UO-31 renal, in the experiment with SK-MEL-2 melanoma and with SK-OV-3 ovarian was over 100 µM each time. Further, the TGI in the experiment on COLO 205 colon, in the experiment with NCI-H226 lung, with BT-549 breast, with A498 renal, with NCI-H460 lung and with RXF 393 renal was over 100 µM throughout. Further, the TGI with HCT-116 colon, in the experiment with SF-268 CNS, in the experiment on OVCAR-5 ovarian, in the experiment on 786-0 renal and in the experiment on NCI-H23 lung was over 100 µM each time.
Take `NC(N)=NCc1ccc2c(c1)OCO2`: the TGI in the experiment on CAKI-1 renal, in the experiment on RPMI-8226 leukemia, with MDA-N, with UO-31 renal, in the experiment on SK-MEL-2 melanoma and in the experiment on SK-OV-3 ovarian was over 100 µM in each case. Moreover, the TGI in the experiment with A498 renal, in the experiment on HT29 colon, with NCI-H460 lung, with RXF 393 renal, in the experiment with HCT-116 colon and in the experiment on SF-268 CNS was over 100 µM throughout. Further, the TGI with OVCAR-5 ovarian, in the experiment with 786-0 renal and in the experiment with NCI-H23 lung was over 100 µM in each case.
For the compound `COC(=O)C(Cc1c[nH]c2ccccc12)NC(=O)C(Cc1c[nH]c2ccccc12)NC(=O)C(Cc1c[nH]c2ccccc12)NC(=O)OC(C)(C)C` (stereo not drawn) (Boc-Trp-Trp-Trp-OMe; configuration not given here), the TGI was 58.6 µM in the experiment on RPMI-8226 leukemia; 40.3 µM in the experiment with MDA-N; over 100 µM with UO-31 renal; 35.8 µM in the experiment with SK-MEL-2 melanoma; 42.7 µM with COLO 205 colon; 37.1 µM in the experiment with NCI-H226 lung. The TGI in the experiment with BT-549 breast was 33.8 µM; in the experiment on A498 renal it was over 100 µM; in the experiment with HT29 colon, 35.9 µM; with OVCAR-8 ovarian, 38.8 µM; in the experiment on NCI-H460 lung, 36 µM; with RXF 393 renal it was 21 µM. Besides, the TGI stood at 29.8 µM in the experiment on HCT-116 colon, 32 µM with OVCAR-5 ovarian, 31.7 µM in the experiment with 786-0 renal and 31.8 µM in the experiment with NCI-H23 lung.
Consider `O=C1N(CN2CCOCC2)CN(CN2CCOCC2)C(=O)N1Cc1ccc(-c2ccc(CN3C(=O)N(CN4CCOCC4)CN(CN4CCOCC4)C3=O)cc2)cc1`, for which the TGI with CAKI-1 renal is 29.2 µM; with UO-31 renal, 40.6 µM; in the experiment on SK-MEL-2 melanoma, over 51.8 µM; with SK-OV-3 ovarian, over 100 µM; in the experiment with COLO 205 colon, over 41.9 µM; with NCI-H226 lung, over 77.3 µM. Further, the TGI was 39.1 µM in the experiment on BT-549 breast; over 100 µM with MCF7 breast; 44.1 µM with A498 renal; over 100 µM in the experiment with HT29 colon; 82.9 µM in the experiment with OVCAR-8 ovarian; 54.5 µM in the experiment with NCI-H460 lung. Also, the TGI in the experiment on RXF 393 renal was 27.3 µM; with HCT-116 colon, 29.7 µM; in the experiment on SF-268 CNS, 59.3 µM; in the experiment on OVCAR-5 ovarian, 39.8 µM; in the experiment with 786-0 renal, 79.4 µM; with NCI-H23 lung it was 47.5 µM.

Source of the values: PubChem BioAssay (NCI).
